{
  "source": "patent US12215133B2",
  "about": "(BrightGene Bio-Medical Technology Co., Ltd., priority 2021, dated 2025)",
  "key": {"db/db mice": {"system": "db/db mice", "assay": "Inhibitory effect of BG128 on hyperglycemia in db/db mice (Experimental Example 3)", "type": "in vivo", "protocol": "55 6-8 week-old SPF-grade male db/db mice were purchased from Zhejiang Vital River Experimental Animal Technology Co., Ltd.\nAccording to the dosage regimen in Table 7, a certain amount of Tirzepatide and BG128 were weighed and the vehicle (pH=7.0, 20 mM sodium citrate buffer) was added to formulated to the corresponding concentration. The formulation was performed once every 7 days, and the formulated mixture was sub-packaged and stored at 2° C.-8° C. in the dark.\nBefore the administration, according to the body weight and fasting blood glucose, the animals were grouped into: db/db-ND group, Tirzepatide—0.15 mg/kg group, BG128—0.05 mg/kg group, BG128—0.15 mg/kg group and BG128—0.5 mg/kg group, and each group have 11 animals; and see Table 7 for details.\nThe day of the first administration was recorded as d1, and the time was recorded by analogy; Tirzepatide and BG128 were administered once every three days, and the time points were d1, d4, d7, d10, d13, d16, d19, d22, d25 and d28, a total of 10 administrations; and see Table 7 for details.\nWeighing: animals were weighed before administration once every three days until the end of the experiment.\nThe food intake of the animals was recorded starting at three days before the grouping for administration until the end of the experiment. The remaining amount was weighed before administration each time.\n1) Non-fasting blood glucose determination: first administration 0 h (pre), 1 h, 2 h, 3 h, 6 h, 24 h, 48 h, 72 h;\n2) Fasting blood glucose: the determination dates were respectively d-1 (before grouping), d7, d13, d19, d25 and d31. The animals were fasted for 6 hours, and the fasting blood glucose was determined before administration.\n3 days after the last administration, the animals were weighed and fasted for 6 hours, and the fasting blood glucose of the animals was determined; after anesthesia, a portion of non-anticoagulated whole blood was collected through the orbital venous plexus, stood at room temperature for 30 minutes, and centrifuged at 5000 rpm for 5 minutes, the serum was separated and frozen at −80° C. for the determination of serum insulin content; a portion of anticoagulated whole blood was collected for the determination of HbA1c content. The serum insulin was determined by Elisa method.\nThe data was organized in Excel 2017 and Prism6.0, and the data was expressed as Mean±SEM (standard error). One-way ANOVA was used for analysis, and Tukey was selected as the analysis method for comparing significance of difference between groups; when the two groups were compared, T-test was used for two-tailed test between the two groups. […]"}, "GIP receptor": {"target": "T1, GIP receptor (Homo sapiens, UniProt P48546)", "T1 construct": "expressed in transfected cells; host or cells: CHO cell line", "T1 sequence (P48546 22-466)": "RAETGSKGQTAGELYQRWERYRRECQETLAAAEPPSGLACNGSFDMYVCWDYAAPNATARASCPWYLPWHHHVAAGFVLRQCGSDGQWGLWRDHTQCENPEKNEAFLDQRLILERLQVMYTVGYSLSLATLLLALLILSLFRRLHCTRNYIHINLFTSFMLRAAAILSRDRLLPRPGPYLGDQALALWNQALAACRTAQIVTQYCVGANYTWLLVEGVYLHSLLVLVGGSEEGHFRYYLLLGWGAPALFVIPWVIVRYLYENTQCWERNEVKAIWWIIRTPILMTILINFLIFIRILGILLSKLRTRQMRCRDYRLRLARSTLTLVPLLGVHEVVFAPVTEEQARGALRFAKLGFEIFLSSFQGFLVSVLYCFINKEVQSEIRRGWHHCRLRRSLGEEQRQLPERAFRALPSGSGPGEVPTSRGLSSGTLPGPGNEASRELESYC", "assay": "cAMP experiment, GIP receptor (CHO host cell line)", "type": "cell-based", "details": "CHO host cells"}, "[1]": {"details": "0.5 mg/kg s.c. once every three days, anticoagulated whole blood, end of experiment, Mean ± SEM"}},
  "data": [
    {"smiles": "CNC(CCCCNC(=O)COCCOCCOCCNC(=O)COCCOCCOCCNC(=O)CCC(NC(=O)CC(=O)O)C(=O)O)C(N)=O", "note": "(centres unmarked) [BG128]", "values": [
      {"measurement": "HbA1C", "setting": "db/db mice; 0.15 mg/kg s.c. once every three days, anticoagulated whole blood, end of experiment, Mean ± SEM", "result": "5.31 ± 0.19"},
      {"measurement": "HbA1C", "setting": "db/db mice; [1]", "result": "4.68 ± 0.20"},
      {"measurement": "HbA1C%", "setting": "db/db mice; [1]", "result": "3.33 ± 0.16^abde %"},
      {"measurement": "blood sugar suppression effect (non-fasting) compared with Tirzepatide", "setting": "db/db mice; within 72 h of the first administration, equal dose 0.15 mg/kg, FIG. 11", "result": "dose-dependent and better than that of positive drug Tirzepatide"},
      {"measurement": "EC50", "setting": "GIP receptor", "result": 0.279, "unit": "nM"}
    ]}
  ]
}
